Patent publication US20250049966A1, “SMALL MOLECULE TRACER FOR IMAGING ALPHA-SYNUCLEIN AGGREGATES” (Fudan University, priority 2021, published 2025)
“Also recorded” adds a separate entry of the source. Read-outs that look alike come from different tables or passages of the source.

Assays:
[1] = molecular target: T1, human α-synuclein aggregates (Homo sapiens, UniProt P37840); assay: Fluorescence saturation binding of compounds to α-synuclein aggregates
T1 construct: made in house; host or cells: E. coli BL21 (DE3)
Description: 1 μL ampicillin anti-plasmid with α-synuclein in the correct sequence was mixed with 100 μL BL21 (DE3) receptive cells, cooled in an ice bath, added in 600 μL LB medium, and cultured in a 220 rpm shaking bed at 37° C. for 90 min. 150 μL cultured bacterial solution was added to the sterilized dish coated with ampicillin medium evenly. Positive clonal colonies were selected and added to the configured ampicillin medium and cultured in an incubator at 37° C. The cultured positive clones were poured into 1 L of 2×YT medium and cultured in a 220 rpm shaker at 37° C. to make OD 600 0.6 and then cooled to 18° C. Each medium was induced to culture for 16 hours by adding 1 ml of IPTG (500 mM).
The bacteria were centrifuged at high speed for 30 min after ultrasonic. The supernatant was collected to remove DNA and hetero-proteins by Ni-NTA chromatography. α-synuclein monomer was purified by molecular exclusion chromatography and the purity was verified by SDS-PAGE discontinuous electrophoresis.
α-synuclein monomers were prepared into a buffer solution containing 1×PBS, wherein the final protein concentration was 100 μM (about 5 mg/mL), and incubated in a 1000 rpm shaker at 37° C. for 7 days to obtain α-synuclein aggregates. The initial and final concentrations of the monomer protein were determined by the BCA method.
10 mM mother solution of DMSO was prepared from 1 mg of the compound, then diluted to 20 μM with PBS, and made gradient dilution 7 times (3× each dilution); 30 μL of test compound was added to the 384-well plate, following the experimental group was added to 30 μL α-synuclein aggregates (3 μM), and the control group was added to the same amount of PBS. After the 384-well plate was incubated shaking at 50 rpm at room temperature for 1 hour, the plate was taken out to detect the maximum absorption and emission wavelengths of the compound with an ELISA Microplate Reader, and the fluorescence values were detected at these wavelengths, too. The fluorescence changes in different concentrations of compounds were calculated using the experimental group data minus the control group data, and the protein-binding affinity of compounds was obtained using the Saturation binding module of GraphPad Prism.
The binding affinity of the Formula I compound to α-synuclein aggregates is determined by the above method, and the dissociation equilibrium constant Kd is shown in Table 1.

[2] = Blood-brain barrier permeability test, rat tail vein injection; assay type: in vivo; conditions: brain / blood supernatant after centrifugation, intravenous, SD rats, 5 mg/kg tail vein, 20 min after administration, LC-MS/MS, read-out: brain/blood ratio
Description: The compound of the invention is injected into a rat tail vein to determine the blood-brain barrier permeability in vivo according to the following method.
Dissolve the tested compound in DMSO, and add castor oil and PBS for dilution (DMSO:castor oil:PBS=1:1:8). SD rats were weighed and given 5 mg/kg in the tail vein. 500 μL of blood was taken 20 min after administration after anesthetized with isoflurane. Cardiac perfusion was performed with 200 mL PBS and stopped until the organ faded, following brain tissue was got out and washed with PBS.
After centrifuging the extracted blood at 9000 rpm for 5 min, 200 μL supernatant was taken and added 800 μL methanol. After centrifuging at 14000 rpm for 10 min, the supernatant was taken and filtered through a 0.22 μm filter membrane and stored at −80° C. for use.
2 mL PBS and 2 mL methanol were added to about 0.5 g of brain tissue to make a tissue homogenization, and then 1 mL homogenate was taken out and centrifuged at 14,000 rpm for 10 min after 2 mL methanol was added, 1 mL supernatant was taken through 0.22 μm filter membrane and stored at −80° C. for use. The concentration of compounds in the above supernatant of blood and brain homogenate were checked by LC-MS/MS, respectively.

[3] = molecular target: T2, Lewy bodies and Lewy neurites (α-synuclein lesions) (Homo sapiens, UniProt P37840); assay: Fluorescence staining of brain slices from patients of dementia with Lewy body (DLB); assay type: binding; conditions: for Staining of Lewy bodies and Lewy neurites in DLB patient brain slices: 30 μM compound, frozen amygdala sections 20 μm, fluorescence microscopy, FIG. 1; for Binding to α-synuclein pathological tissue compared with Aβ and Tau pathological tissue (selectivity): DLB versus AD brain slices, FIG. 1 and FIG. 2
T2 construct: from tissue; host or cells: human amygdala, DLB patient, fresh frozen sections
Description: Brain slices from patients with dementia with Lewy bodies were taken from the amygdala of a deceased person in stage 2 of dementia with Lewy bodies. Frozen sections of the amygdala with rich α-synuclein were performed with a thickness of 20 μm.
(§1) The tested compound was diluted to 30 μM with PBS solution containing 50% EtOH, following incubated with the fresh frozen brain sections at room temperature for 30 minutes, then washed with 50% ethanol solution for 5 minutes and ultra-pure water twice for 3 minutes each time in sequence. After the sections were buried with an embedding agent (VECTASHIELD H-1000, Vector Laboratories), images of the lesion accumulation area on the sections were obtained by fluorescence microscopy. Analysis software (Image J) was used to quantify the fluorescence radiance of both the lesion area and the area of the non-forming lesion (background) to evaluate binding selectivity.

Aβ lesions = molecular target: T3, Aβ lesions (Homo sapiens, UniProt P05067); assay: Fluorescence staining of brain slices from patients with Alzheimer's disease (AD), Aβ; assay type: binding; conditions: 30 μM compound, superior temporal gyrus sections 6 μm, fluorescence microscopy, FIG. 2
T3 construct: from tissue
T3 sequence (P05067 672-713 limits assumed): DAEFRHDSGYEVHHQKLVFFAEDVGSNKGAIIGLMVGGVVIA
Description: as §1
(§2) The dewaxed brain tissue was fixed in a 10% neutral buffer of formalin solution, embedded with paraffin, and then sliced with a thickness of 6 μm. The staining method is the same as the above method for DLB patients.

[4] = system: Tau neurofibrillary filaments; assay: Fluorescence staining of brain slices from patients with Alzheimer's disease (AD), Tau; assay type: binding, human; conditions: 30 μM compound, superior temporal gyrus sections 6 μm, fluorescence microscopy, FIG. 2
Description: as §1, §2

[5] = fluorescence method, α-synuclein aggregates (3 μM), room temperature 1 hour, read-out: Binding affinity (Kd) on human α-synuclein aggregates

SMILES	Kd [1, 5]	Kd [1]	Kp at 20 min [2]	Staining of Lewy bodies and Lewy neurites in DLB patient brain slices [3]	Binding to α-synuclein pathological tissue compared with Aβ and Tau pathological tissue (selectivity) [3]	Staining/binding of Aβ lesions in AD patient brain slices (Aβ lesions)	Staining/binding of Tau neurofibrillary filaments in AD patient brain slices [4]
CN(C)c1ccc(-c2nc3cc(-c4cccnc4)ccc3o2)cn1 [I-1]	500 to 1000 nM	–	–	–	–	–	–
CN(C)c1ccc(-c2nc3cc(-c4cccnc4)ccc3o2)cc1 [I-2]	500 to 1000 nM	–	–	–	–	–	–
CN1CCN(c2ccc3oc(-c4ccc(N(C)C)nc4)nc3c2)C(=O)C1 [I-4]	–	100 to 200 nM	≥ 1	can stain Lewy bodies and Lewy neurites; also recorded: can well label the α-synuclein in Lewy bodies and Lewy neurites	significantly stronger	could also detect Aβ lesions; also recorded: very weak binding	fail to Tau neurofibrillary filaments; also recorded: no binding
Fc1ccc(-c2ccc3oc(-c4ccc(N5CCCC5)nc4)nc3c2)cn1 [I-5]	200 to 500 nM	–	≥ 1	can stain Lewy bodies and Lewy neurites; also recorded: can well label the α-synuclein in Lewy bodies and Lewy neurites	significantly stronger	could also detect Aβ lesions; also recorded: very weak binding	fail to Tau neurofibrillary filaments; also recorded: no binding
Fc1ccc(-c2ccc3nc(-c4ccc(N5CCCC5)nc4)oc3c2)cn1 [I-6]	200 to 500 nM	–	≥ 1	can stain Lewy bodies and Lewy neurites; also recorded: can well label the α-synuclein in Lewy bodies and Lewy neurites	significantly stronger	could also detect Aβ lesions; also recorded: very weak binding	fail to Tau neurofibrillary filaments; also recorded: no binding
CN(C)c1ccc(-c2nc3cc(N4CCN(CCF)CC4=O)ccc3o2)cn1 [I-10]	200 to 500 nM	–	–	–	–	–	–
